Assays:
purified IIb-IIIa [1] = molecular target: T1, purified IIb-IIIa (Homo sapiens, UniProt P05106+P08514); assay: Surface Plasmon Resonance, real-time dissociation of ligands from IIb-IIIa; assay type: binding; conditions: fibrinogen immobilized on sensor chip, without 52012 (FIG. 4B)
Method: FIGS. 4A and 4B. Measuring the ability of 52012 to dissociate fibrinogen and Fab-9 from IIb-IIIa in real time. Studies were performed with Surface Plasmon Resonance to examine the ability of 52012 to induce the dissociation of ligands from IIb-IIIa. Fab-9 (FIG. 4A) or fibrinogen (FIG. 4B) were immobilized on the sensor chip and then allowed to bind to purified IIb-IIIa. At a specific time, 52012 was introduced by injection into the flow cell.
In one embodiment, ILDs can be identified by the ability to increase the rate of dissociation between an integrin and its natural ligand, or a known mimic of its natural ligand, with Surface Plasmon Resonance (SPR), for example, using the BIACORE Surface Plasmon Resonance™ instrument. SPR is a technique that measures ligand association and dissociation in "real time." To screen for an ILD using plasmon resonance, the following steps would be taken:
It is important to note that the configuration of the assay could take several different forms. For example, rather than immobilizing the integrin on the sensor chip, one could immobilize the ligand. In such case, the integrin would be allowed to bind the immobilized ligand prior to measuring dissociation rates.
To verify the effect of RGD-type ligands on the dissociation of fibrinogen from IIB-IIIa, dissociation rates were measured in real time using Surface Plasmon Resonance (SPR).

purified IIb-IIIa [2] = molecular target: T1, purified IIb-IIIa; assay: Competition binding to purified IIb-IIIa immobilized in microtiter plates; conditions: 125I-Fab-9 challenged with unlabeled fibrinogen (FIG. 1B)
Method: FIGS. 1A and 1B. Fibrinogen and Fab-9 bind distinct sites on IIb-IIIa. Studies were conducted with purified IIb-IIIa to determine whether Fab-9 (an RGD mimic) and fibrinogen bind to the same site on the integrin. IIb-IIIa was immobilized in microtiter plates and was allowed to bind either ^125 I-fibrinogen (FIG. 1A) or to ^125 I-Fab-9 (FIG. 1B). The binding of ^125 I-fibrinogen was challenged with unlabeled Fab-9. Similarly, the binding of ^125 I-Fab-9 was challenged with unlabeled fibrinogen.
To determine if fibrinogen and Fab-9 actually bind the same site on IIb-IIIa, a series of competition binding studies were carried out. The ability of the two ligands to compete for binding to IIB-IIIa was measured. Fab-9 blocked the binding of fibrinogen to IIB-IIIa (FIG. 1A). […] These sites are designated as Site I, which binds to Fab-9 and Site II, which interacts with fibrinogen (FIG. 2).

T1 sequence (P08514 32-887 limits assumed): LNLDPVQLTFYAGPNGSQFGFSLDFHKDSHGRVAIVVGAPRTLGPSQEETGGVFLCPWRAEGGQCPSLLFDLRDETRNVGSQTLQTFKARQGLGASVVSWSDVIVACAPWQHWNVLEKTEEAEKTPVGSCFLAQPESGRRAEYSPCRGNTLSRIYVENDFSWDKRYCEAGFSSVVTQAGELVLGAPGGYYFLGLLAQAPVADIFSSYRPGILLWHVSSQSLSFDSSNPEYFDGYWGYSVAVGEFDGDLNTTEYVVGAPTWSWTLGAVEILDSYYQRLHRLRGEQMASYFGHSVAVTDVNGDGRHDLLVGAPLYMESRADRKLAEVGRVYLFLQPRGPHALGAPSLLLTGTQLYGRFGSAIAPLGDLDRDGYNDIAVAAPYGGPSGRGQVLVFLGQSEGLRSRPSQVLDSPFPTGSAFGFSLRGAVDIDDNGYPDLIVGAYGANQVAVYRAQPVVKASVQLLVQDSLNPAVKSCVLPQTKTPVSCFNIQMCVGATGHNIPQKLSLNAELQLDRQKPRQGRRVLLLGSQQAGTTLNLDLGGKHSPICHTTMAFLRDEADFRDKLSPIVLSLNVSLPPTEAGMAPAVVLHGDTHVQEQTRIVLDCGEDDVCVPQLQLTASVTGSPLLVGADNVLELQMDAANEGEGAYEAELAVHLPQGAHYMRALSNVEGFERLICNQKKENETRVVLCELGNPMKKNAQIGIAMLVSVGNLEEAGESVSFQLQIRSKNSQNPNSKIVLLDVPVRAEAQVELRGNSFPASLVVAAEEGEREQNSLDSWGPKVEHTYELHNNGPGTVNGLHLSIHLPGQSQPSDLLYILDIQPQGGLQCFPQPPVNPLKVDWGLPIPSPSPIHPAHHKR
T1 sequence (P08514 891-1039 limits assumed): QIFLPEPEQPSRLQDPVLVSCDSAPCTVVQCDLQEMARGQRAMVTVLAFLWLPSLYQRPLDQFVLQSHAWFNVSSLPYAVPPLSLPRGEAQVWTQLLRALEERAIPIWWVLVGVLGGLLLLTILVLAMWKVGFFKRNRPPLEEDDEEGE
T1 sequence (P05106 27-788): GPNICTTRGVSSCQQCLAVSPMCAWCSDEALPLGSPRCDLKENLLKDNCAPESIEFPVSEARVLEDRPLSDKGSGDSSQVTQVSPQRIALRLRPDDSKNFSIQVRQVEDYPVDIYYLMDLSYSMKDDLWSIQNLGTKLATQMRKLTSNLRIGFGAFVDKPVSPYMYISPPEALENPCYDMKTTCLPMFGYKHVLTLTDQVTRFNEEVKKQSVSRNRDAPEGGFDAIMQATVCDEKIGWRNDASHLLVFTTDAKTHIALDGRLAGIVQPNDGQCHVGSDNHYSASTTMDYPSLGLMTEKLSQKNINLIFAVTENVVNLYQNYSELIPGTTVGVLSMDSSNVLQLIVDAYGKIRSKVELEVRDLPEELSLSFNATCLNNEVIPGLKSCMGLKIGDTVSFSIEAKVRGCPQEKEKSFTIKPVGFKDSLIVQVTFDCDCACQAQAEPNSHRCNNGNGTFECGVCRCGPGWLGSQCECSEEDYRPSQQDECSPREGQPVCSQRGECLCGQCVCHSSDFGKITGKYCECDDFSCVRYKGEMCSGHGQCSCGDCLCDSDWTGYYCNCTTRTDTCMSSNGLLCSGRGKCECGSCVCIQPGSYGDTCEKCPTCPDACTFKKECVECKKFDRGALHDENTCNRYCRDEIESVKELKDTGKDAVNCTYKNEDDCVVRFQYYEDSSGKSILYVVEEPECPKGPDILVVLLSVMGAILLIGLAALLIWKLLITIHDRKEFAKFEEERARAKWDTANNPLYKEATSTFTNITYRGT

off-rate of fibrinogen from IIb-IIIa before 52012 (purified IIb-IIIa [1]): 6e-05 s⁻¹ | blocking of binding of 125I-Fab-9 to IIb-IIIa (purified IIb-IIIa [2]): failed to block
Substance: fibrinogen
